The record followed here is US20250320206A1, “STAT6 DEGRADERS” (Gilead Sciences, Inc., priority 2024, published 2025).

The target of one assay is T1, STAT6 (Homo sapiens, UniProt P42226).
T1 construct: These cells express endogenous STAT6; host or cells: HeLa LgBiT clone 4.14
T1 sequence (P42226 1-847): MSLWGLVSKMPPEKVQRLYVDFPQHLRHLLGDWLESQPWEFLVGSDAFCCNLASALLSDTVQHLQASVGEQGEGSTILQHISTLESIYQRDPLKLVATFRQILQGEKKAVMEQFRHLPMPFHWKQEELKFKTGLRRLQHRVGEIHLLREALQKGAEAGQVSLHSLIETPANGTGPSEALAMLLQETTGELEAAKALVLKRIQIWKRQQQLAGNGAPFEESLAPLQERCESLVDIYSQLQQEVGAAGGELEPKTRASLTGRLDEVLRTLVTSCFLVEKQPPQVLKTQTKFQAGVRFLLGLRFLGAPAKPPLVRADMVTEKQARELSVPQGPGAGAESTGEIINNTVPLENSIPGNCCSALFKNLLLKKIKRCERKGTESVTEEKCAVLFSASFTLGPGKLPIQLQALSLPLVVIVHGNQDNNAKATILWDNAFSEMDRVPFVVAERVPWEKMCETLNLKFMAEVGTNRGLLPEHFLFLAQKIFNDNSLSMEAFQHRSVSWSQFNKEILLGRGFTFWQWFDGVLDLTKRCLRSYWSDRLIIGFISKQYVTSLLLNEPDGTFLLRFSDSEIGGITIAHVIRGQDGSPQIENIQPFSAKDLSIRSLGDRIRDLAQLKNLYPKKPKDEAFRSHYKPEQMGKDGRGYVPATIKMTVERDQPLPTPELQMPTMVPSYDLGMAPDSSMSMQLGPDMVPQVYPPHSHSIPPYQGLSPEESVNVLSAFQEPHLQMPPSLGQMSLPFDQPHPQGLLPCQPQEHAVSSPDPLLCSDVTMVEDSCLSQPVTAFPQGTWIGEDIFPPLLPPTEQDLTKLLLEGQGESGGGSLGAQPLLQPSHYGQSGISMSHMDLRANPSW
Kind of assay: Stat6 Degrader Assay (HiBiT based, HeLa LgBiT clone 4.14). The class given is cell-based. The conditions noted are these: HeLa LgBiT clone 4.14 HiBiT-STAT6, 4-24 h incubation; values given for compounds with >80% Emax; geometric mean; read-out: STAT6 degradation DC50. The essentials: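 HeLa LgBiT clone 4.14 cells with CRISPR HiBiT-tagged endogenous STAT6, 5000 cells/well, compound dosed then incubated 4-24 h at 37° C, 5% CO2. Nano-Glo substrate added, 0.5 h, luminescence read as non-degraded STAT6. Terfenadine 50 μM (cell kill) defines 100% degradation.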

In assay [1] the test system is Eotaxin-3 release in human whole blood stimulated with IL-4. Kind of assay: Human Whole Blood Eotaxin-3 Assay (IL-4 stimulated eotaxin-3 release). As to conditions: IL-4 stimulation, 48 h, values given for compounds with >80% Emax, geometric mean. The class given is cell-based. The essentials:
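Lithium-heparin human whole blood preincubated 2 h at 37° C with 4-fold serially diluted compounds (0.5% DMSO), then stimulated with recombinant human IL-4 ([…]) for 48 h. Eotaxin-3 (CCL26) in supernatant quantified by MSD immunoassay.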

Molecules are shown by their SMILES. pEC50: −log10 of the molar value.

With `CNc1cc(=O)n(-c2ccnc3c2cc([C@H](C)N2CC=C(c4c(C)cc(C(=O)N5CCC(CN6CCN(Cc7ccc8c(c7)C(C)(C)C(=O)N8C7CCC(=O)NC7=O)CC6)CC5)cc4F)CC2)n3C)cc1F` (stereo partly drawn) [Example 3u87, 3-(5-((4-((1-(3-fluoro-4-(1-((S)-1-(4-(5-fluoro-4-(methylamino)-2-oxopyridin-1 (2H)-yl)-1-methyl-1H-pyrrolo[2,3-b]pyridin-2-yl)ethyl)-1,2,3,6-tetrahydropyridin-4-yl)-5-methylbenzoyl)piperidin-4-yl)methyl)piperazin-1-yl)methyl)-3,3-dimethyl-2-oxoindolin-1-yl)piperidine-2,6-dione], the DC50 at STAT6 was determined as 3.5 nM. Further, the pEC50 in assay [1] was 7.82.

As for `CNc1cc(=O)n(-c2ccnc3c2cc([C@H](C)N2CC=C(c4c(C)cc(C(=O)N5CCC(CN6CCN(Cc7ccc8c(c7)n(C)c(=O)n8C7CCC(=O)NC7=O)C[C@@H]6C)CC5)cc4F)CC2)n3C)cc1F` (stereo partly drawn) [Example 3u90, 3-(5-(((S)-4-((1-(3-fluoro-4-(1-((S)-1-(4-(5-fluoro-4-(methylamino)-2-oxopyridin-1 (2H)-yl)-1-methyl-1H-pyrrolo[2,3-b]pyridin-2-yl)ethyl)-1,2,3,6-tetrahydropyridin-4-yl)-5-methylbenzoyl)piperidin-4-yl)methyl)-3-methylpiperazin-1-yl)methyl)-3-methyl-2-oxo-2,3-dihydro-1H-benzo[d]imidazol-1-yl)piperidine-2,6-dione], the DC50 at STAT6 was 0.3 nM. In assay [1], this molecule had a pEC50 of 9.05.

Take `CNc1cc(=O)n(-c2ccnc3c2cc(CN2CCC(c4c(F)cc(C(=O)N5CCC(CN6CCN(Cc7cc8c(cc7F)N(C7CCC(=O)NC7=O)C(=O)C87CC7)CC6)CC5)cc4F)CC2)n3C)cc1F` (stereo not shown) [Example 3u93, 3-(5′-((4-((1-(3,5-difluoro-4-(1-((4-(5-fluoro-4-(methylamino)-2-oxopyridin-1 (2H)-yl)-1-methyl-1H-pyrrolo[2,3-b]pyridin-2-yl)methyl)piperidin-4-yl)benzoyl)piperidin-4-yl)methyl)piperazin-1-yl)methyl)-6′-fluoro-2′-oxospiro[cyclopropane-1,3′-indolin]-1′-yl)piperidine-2,6-dione]: the DC50 at STAT6 was found to be 26.9 nM. In assay [1], this molecule had a pEC50 of 7.78.

As for `C[C@H]1CN(Cc2ccc3c(c2)C2(CC2)C(=O)N3C2CCC(=O)NC2=O)CCN1CC1CCN(C(=O)c2cc(F)c(C3CCN(Cc4cc5c(-n6cc(F)c(N)c(F)c6=O)ccnc5n4C)CC3)c(F)c2)CC1` (stereo partly drawn) [Example 3u96, 3-(5′-(((S)-4-((1-(4-(1-((4-(4-amino-3,5-difluoro-2-oxopyridin-1 (2H)-yl)-1-methyl-1H-pyrrolo[2,3-b]pyridin-2-yl)methyl)piperidin-4-yl)-3,5-difluorobenzoyl)piperidin-4-yl)methyl)-3-methylpiperazin-1-yl)methyl)-2′-oxospiro[cyclopropane-1,3′-indolin]-1′-yl)piperidine-2,6-dione], on STAT6, the DC50 was 4.1 nM. In addition, in assay [1], the negative logarithm of the EC50 (pEC50) is 9.00.

Consider `C[C@H]1CN(Cc2ccc3c(c2)C2(CCC2)C(=O)N3C2CCC(=O)NC2=O)CCN1CC1CCN(C(=O)c2cc(F)c(C3CCN(Cc4cc5c(-n6ccc7c(c6=O)CCN7)ccnc5n4C)CC3)c(F)c2)CC1` (stereo partly drawn) [Example 3u101, 3-(5′-(((S)-4-((1-(3,5-difluoro-4-(1-((1-methyl-4-(4-oxo-1,2,3,4-tetrahydro-5H-pyrrolo[3,2-c]pyridin-5-yl)-1H-pyrrolo[2,3-b]pyridin-2-yl)methyl)piperidin-4-yl)benzoyl)piperidin-4-yl)methyl)-3-methylpiperazin-1-yl)methyl)-2′-oxospiro[cyclobutane-1,3′-indolin]-1′-yl)piperidine-2,6-dione], for which the DC50 at STAT6 is 2.3 nM. In addition, the negative-log EC50 (pEC50) in assay [1] was 8.62.

`CNc1nc(=O)n(-c2ccnc3c2cc([C@H](C)N2CC=C(c4c(C)cc(C(=O)N5CCC(CN6CCN(Cc7ccc8c(c7)C7(CC7)C(=O)N8C7CCC(=O)NC7=O)C[C@@H]6C)CC5)cc4F)CC2)n3C)cc1F` (stereo partly drawn) [Example 3u102, 3-(5′-(((S)-4-((1-(3-fluoro-4-(1-((S)-1-(4-(5-fluoro-4-(methylamino)-2-oxopyrimidin-1 (2H)-yl)-1-methyl-1H-pyrrolo[2,3-b]pyridin-2-yl)ethyl)-1,2,3,6-tetrahydropyridin-4-yl)-5-methylbenzoyl)piperidin-4-yl)methyl)-3-methylpiperazin-1-yl)methyl)-2′-oxospiro[cyclopropane-1,3′-indolin]-1′-yl)piperidine-2,6-dione]: on STAT6, the DC50 came to 3.4 nM. In assay [1], this molecule had a negative-log EC50 (pEC50) of 8.72.

For the molecule `C[C@H]1CN(Cc2ccc3c(c2)n(C2CC2)c(=O)n3C2CCC(=O)NC2=O)CCN1CC1CCN(C(=O)c2cc(F)c(C3CCN(Cc4cc5c(-n6ccc7c(c6=O)CCN7)ccnc5n4C)CC3)c(F)c2)CC1` (stereo partly drawn) [Example 3u106, 3-(3-cyclopropyl-5-(((S)-4-((1-(3,5-difluoro-4-(1-((1-methyl-4-(4-oxo-1,2,3,4-tetrahydro-5H-pyrrolo[3,2-c]pyridin-5-yl)-1H-pyrrolo[2,3-b]pyridin-2-yl)methyl)piperidin-4-yl)benzoyl)piperidin-4-yl)methyl)-3-methylpiperazin-1-yl)methyl)-2-oxo-2,3-dihydro-1H-benzo[d]imidazol-1-yl)piperidine-2,6-dione], the DC50 on STAT6 is 2.3 nM. In addition, in assay [1], the pEC50 is 9.10.

For `Cc1cc(C(=O)N2CCC(CN3CCN(Cc4ccc5c(c4)n(C)c(=O)n5C4CCC(=O)NC4=O)C[C@@H]3C)CC2)cc(F)c1C1=CCN([C@@H](C)c2cc3c(-n4cc(F)c5c(c4=O)CCN5)ccnc3n2C)CC1` (stereo partly drawn) [Example 3u109, 3-(5-(((S)-4-((1-(3-fluoro-4-(1-((S)-1-(4-(7-fluoro-4-oxo-1,2,3,4-tetrahydro-5H-pyrrolo[3,2-c]pyridin-5-yl)-1-methyl-1H-pyrrolo[2,3-b]pyridin-2-yl)ethyl)-1,2,3,6-tetrahydropyridin-4-yl)-5-methylbenzoyl)piperidin-4-yl)methyl)-3-methylpiperazin-1-yl)methyl)-3-methyl-2-oxo-2,3-dihydro-1H-benzo[d]imidazol-1-yl)piperidine-2,6-dione], the DC50 at STAT6 amounted to 1.4 nM. Moreover, the pEC50 in assay [1] is 8.55.

Regarding `CNc1ccn(-c2ccnc3c2cc([C@H](C)N2CC=C(c4c(C)cc(C(=O)N5CCC(CN6CCN(Cc7ccc8c(c7)n(C7CC7)c(=O)n8C7CCC(=O)NC7=O)C[C@@H]6C)CC5)cc4F)CC2)n3C)c(=O)c1` (stereo partly drawn) [Example 3u111, 3-(3-cyclopropyl-5-(((S)-4-((1-(3-fluoro-5-methyl-4-(1-((S)-1-(1-methyl-4-(4-(methylamino)-2-oxopyridin-1 (2H)-yl)-1H-pyrrolo[2,3-b]pyridin-2-yl)ethyl)-1,2,3,6-tetrahydropyridin-4-yl)benzoyl)piperidin-4-yl)methyl)-3-methylpiperazin-1-yl)methyl)-2-oxo-2,3-dihydro-1H-benzo[d]imidazol-1-yl)piperidine-2,6-dione], the DC50 at STAT6 worked out at 0.4 nM. The same molecule showed a pEC50 in assay [1] of 9.52.

`CNc1c(F)cn(-c2ccnc3c2cc(CN2CCC(c4c(F)cc(C(=O)N5CCC(CN6CCN(Cc7ccc8c(c7)C7(CC7)C(=O)N8C7CCC(=O)NC7=O)C[C@@H]6C)CC5)cc4F)CC2)n3C)c(=O)c1F` (stereo partly drawn) [Example 3u115, 3-(5′-(((S)-4-((1-(4-(1-((4-(3,5-difluoro-4-(methylamino)-2-oxopyridin-1 (2H)-yl)-1-methyl-1H-pyrrolo[2,3-b]pyridin-2-yl)methyl)piperidin-4-yl)-3,5-difluorobenzoyl)piperidin-4-yl)-methyl)-3-methylpiperazin-1-yl)methyl)-2′-oxospiro[cyclopropane-1,3′-indolin]-1′-yl)piperidine-2,6-dione]: the DC50 at STAT6 was 8.3 nM. Further, in assay [1], the pEC50 was 8.04.

With `Cc1cc(C(=O)N2CCC(CN3CCN(Cc4ccc5c(c4)C4(CC4)C(=O)N5C4CCC(=O)NC4=O)C[C@@H]3C)CC2)cc(F)c1C1=CCN([C@@H](C)c2cc3c(-n4cc(F)c5c(c4=O)CCN5)ccnc3n2C)CC1` (stereo partly drawn) [Example 3u116, 3-(5′-(((S)-4-((1-(3-fluoro-4-(1-((S)-1-(4-(7-fluoro-4-oxo-1,2,3,4-tetrahydro-5H-pyrrolo[3,2-c]pyridin-5-yl)-1-methyl-1H-pyrrolo[2,3-b]pyridin-2-yl)ethyl)-1,2,3,6-tetrahydropyridin-4-yl)-5-methylbenzoyl)piperidin-4-yl)methyl)-3-methylpiperazin-1-yl)methyl)-2′-oxospiro[cyclopropane-1,3′-indolin]-1′-yl)piperidine-2,6-dione], the DC50 on STAT6 is 8.7 nM. Moreover, in assay [1], the pEC50 is 8.22.
